How the values were obtained:
[1] = test system: men and women with overactive bladder; test: Phase 3 study (75 mg), patient-reported outcomes (OAB-q LF, PGI); type: in vivo, human; set-up: OAB-q sleep score, improvement greater than placebo / HRQL Total Score, improvement greater than placebo / OAB-q HRQL Total Score, Active - Placebo LS Means Difference: scale not given here
From the text: Patients completed paper questionnaires at the site at the start of each required study visit to assess patient-perceived symptom relief, symptom bother, and health-related quality of life at the study visits. […] These included the following questionnaires:
1. Global Impression Items include Patient Global Impression of Severity (PGI-Severity), Patient Global Impression of Control (PGI-Control), Patient Global Impression of Frequency (PGI-Frequency), Patient Global Impression of Leakage (PGI-Leakage), and Patient Global Impression of Change (PGI-Change).
2. Overactive Bladder Questionnaire (OAB-q long form [OAB-q LF], 1-week recall) is a 33-item patient-administered, disease-specific questionnaire that includes a Health-Related QoL (HRQL) scale (25 items) and a Symptom Bother Scale (8 items). The HRQL is a multidomain concept that represents the patient's general perception of the effect of illness and treatment on physical, psychological, and social aspects of life. […] In the present study, the HRQL scale is divided into 4 subscales: Coping, Concern/Worry, Sleep, and Social Interaction. The Coping subscale (also referred to as the coping domain score) was a secondary endpoint, with items scored from 1 (none of the time) to 6 (all the time), with higher scores indicating better QoL. The HRQL total score is calculated by summating the individual HRQL subscale scores. The Symptom Bother Scale items are scored from 1 (not at all) to 6 (a very great deal), with higher Symptom Bother scores indicating greater symptom severity. The instrument was developed and validated in both continent and incontinent OAB patients, including both men and women.
With the exception of the symptom bother score, a responder was defined as having a change from baseline ≥10. For symptom bother score, a responder was defined as having a change from baseline […]. A higher proportion of patients represented a favorable response.

men and women with OAB = test: Phase 2b study of vibegron in OAB, Part 1, efficacy at Week 8 (voiding diary); type: in vivo, human
From the text: Part 2 was designed to continue to assess the safety and efficacy of concomitant dosing. […] Subjects in both Part 1 and Part 2 had the option of enrolling in a 1-year extension. Participants were required to keep a voiding diary, recording the occurrence of each strong urge, total incontinence, and urge incontinence episode. Efficacy data for Part 1 and Part 2 are summarized herein.
The total number of urgency incontinence episodes must have exceeded the total number of stress incontinence episodes for all subjects.

[2] = 50% Total Incontinence Responders, Week 12
[3] = Week 12, responder = change from baseline ≥10
[4] = vibegron 75 mg/day, 12-week treatment
[5] = vibegron 3 mg, OAB Wet subjects
[6] = vibegron 15 mg, OAB Wet subjects
[7] = vibegron 50 mg, OAB Wet subjects
[8] = vibegron 100 mg, OAB Wet subjects

Q: What does the source list for `O=C(Nc1ccc(C[C@@H]2CC[C@H]([C@H](O)c3ccccc3)N2)cc1)[C@@H]1CCc2nccc(=O)n21` [Vibegron, (6S)-N-[4-[[(2S,5R)−5-[(R)-hydroxy(phenyl)methyl]pyrrolidin−2-yl]methyl]phenyl]−4-oxo−7,8-dihydro−6H-pyrrolo[1,2-a]pyrimidine−6-carboxamide]?
A: OAB-q Coping Subscore, Change from baseline at week 12, LS Means (SE) [1, 2]: 20.3 (1.35); OAB-q Coping Subscore, Mean [1, 2]: 83.08 (18.924); OAB-q Symptom Bother Subscore, Change from baseline at week 12, LS Means [1, 2]: −25.5; OAB-q Symptom Bother Subscore, Mean [1, 2]: 21.18; Change from Baseline in PGI-Control, LS Mean ([1]; 75% UUI Responders, Week 4): −0.8 (0.06); PGI-Control, Mean (SD) ([1]; 75% UUI Responders, Week 4): 2.42 (0.887); Change from Baseline in PGI-Control, LS Mean ([1]; 75% UUI Responders, Week 8): −1.0 (0.06); PGI-Control, Mean (SD) ([1]; 75% UUI Responders, Week 8): 2.25 (0.863); Change from Baseline in PGI-Control, LS Mean ([1]; 75% UUI Responders, Week 12): −1.2 (0.06); OAB-q Coping Subscore, Change from baseline at week 12, LS Means (SE) ([1]; 75% UUI Responders, Week 12): 19.7 (1.48); OAB-q Coping Subscore, Mean (SD) ([1]; 75% UUI Responders, Week 12): 83.99 (19.232); OAB-q Symptom Bother Subscore, Change from Baseline at Week 12, LS Means (SE) ([1]; 75% UUI Responders, Week 12): −25.8 (1.38); OAB-q Symptom Bother Subscore, Mean (SD) ([1]; 75% UUI Responders, Week 12): 20.13 (15.862); PGI-Control, Mean (SD) ([1]; 75% UUI Responders, Week 12): 2.02 (0.784); OAB-q Concern Subscore, Week 12 Mean (SD) ([1]; Week 12): 80.58 (21.867); OAB-q Concern responders, Difference from Placebo ([1]; Week 12): 5.9; OAB-q Concern, Active - Placebo LS Means Difference ([1]; Week 12): 5.0; OAB-q Concern, change from baseline LS Means (SE) ([1]; Week 12): 15.3 (1.24); OAB-q Coping Score, Active - Placebo LS Means Difference ([1]; Week 12): 3.6; OAB-q Coping Score, change from baseline LS Means (SE) ([1]; Week 12): 16.5 (1.31); OAB-q Coping Sub score, Week 12 Mean (SD) ([1]; Week 12): 77.26 (23.242); OAB-q Coping responders, Difference from Placebo ([1]; Week 12): 7.5; OAB-q HRQL Total Score, Active - Placebo LS Means Difference ([1]; Week 12): 3.8; OAB-q HRQL Total Score, change from baseline LS Means (SE) ([1]; Week 12): 14.6 (1.12); OAB-q Sleep Subscore, Week 12 Mean (SD) ([1]; Week 12): 75.59 (23.883); OAB-q Sleep responders, Difference from Placebo ([1]; Week 12): 2.1; OAB-q Sleep, Active - Placebo LS Means Difference ([1]; Week 12): 4.5; OAB-q Sleep, change from baseline LS Means (SE) ([1]; Week 12): 14.9 (1.34); OAB-q Social Interaction Subscore, Week 12 Mean (SD) ([1]; Week 12): 88.57 (18.011); OAB-q Social Interaction responders, Difference from Placebo ([1]; Week 12): 5.4; OAB-q Social Interaction, Active - Placebo LS Means Difference ([1]; Week 12): 1.5; OAB-q Social Interaction, change from baseline LS Means (SE) ([1]; Week 12): 10.2 (0.97); OAB-q Symptom Bother Subscore, Week 12 Mean (SD) ([1]; Week 12): 27.78 (19.816); OAB-q Symptom Bother responders, Difference from Placebo ([1]; Week 12): 11.8; OAB-q Symptom Bother, Active - Placebo LS Means Difference ([1]; Week 12): −6.9; OAB-q Symptom Bother, change from baseline LS Means (SE) ([1]; Week 12): −19.6 (1.24); OAB-q Total HRQL Score, Week 12 Mean (SD) ([1]; Week 12): 80.12 (20.175); OAB-q Total HRQL responders, Difference from Placebo ([1]; Week 12): 5.5; OAB-q Symptom Bother responders, % ([1]; Week 12, responder = change from baseline ≤−10): (70.1) %; OAB-q Concern responders, % [1, 3]: (55.7) %; OAB-q Coping responders, % [1, 3]: (61.9) %; OAB-q Sleep responders, % [1, 3]: (53.9) %; OAB-q Total HRQL responders, % [1, 3]: (54.1) %; HRQL Total Score, improvement greater than placebo [1, 4]: 3.8; OAB-q coping domain score, improvement greater than placebo [1, 4]: 3.6; OAB-q sleep score, improvement greater than placebo [1, 4]: 4.5; OAB-q symptom bother score, decrease more than placebo [1, 4]: 6.9; Micturitions: adjusted difference from placebo at Week 8, difference in LS means (MMRM) (men and women with OAB; vibegron 3 mg): −0.5; Micturitions: difference from placebo at Week 8, difference in LS means (cLDA) (men and women with OAB; vibegron 3 mg): −0.46; Urgency episodes: adjusted difference from placebo at Week 8, difference in LS means (MMRM) (men and women with OAB; vibegron 3 mg): −0.2; Urgency episodes: difference from placebo at Week 8, difference in LS means (cLDA) (men and women with OAB; vibegron 3 mg): −0.18; Total incontinence episodes: adjusted difference from placebo at Week 8, difference in LS means (MMRM) (men and women with OAB; [5]): −0.1; Total incontinence episodes: difference from placebo at Week 8, difference in LS means (cLDA) (men and women with OAB; [5]): −0.18; Urgency incontinence episodes: adjusted difference from placebo at Week 8, difference in LS means (MMRM) (men and women with OAB; [5]): −0.2; Urgency incontinence episodes: difference from placebo at Week 8, difference in LS means (cLDA) (men and women with OAB; [5]): −0.28; Micturitions: adjusted difference from placebo at Week 8, difference in LS means (MMRM) (men and women with OAB; vibegron 15 mg): −0.5; Micturitions: difference from placebo at Week 8, difference in LS means (cLDA) (men and women with OAB; vibegron 15 mg): −0.45; Urgency episodes: adjusted difference from placebo at Week 8, difference in LS means (MMRM) (men and women with OAB; vibegron 15 mg): −0.7; Urgency episodes: difference from placebo at Week 8, difference in LS means (cLDA) (men and women with OAB; vibegron 15 mg): −0.67; Total incontinence episodes: adjusted difference from placebo at Week 8, difference in LS means (MMRM) (men and women with OAB; [6]): −0.4; Total incontinence episodes: difference from placebo at Week 8, difference in LS means (cLDA) (men and women with OAB; [6]): −0.48; Urgency incontinence episodes: adjusted difference from placebo at Week 8, difference in LS means (MMRM) (men and women with OAB; [6]): −0.6; Urgency incontinence episodes: difference from placebo at Week 8, difference in LS means (cLDA) (men and women with OAB; [6]): −0.57; Micturitions: adjusted difference from placebo at Week 8, difference in LS means (MMRM) (men and women with OAB; vibegron 50 mg): −0.7; Micturitions: difference from placebo at Week 8, difference in LS means (cLDA) (men and women with OAB; vibegron 50 mg): −0.64; Urgency episodes: adjusted difference from placebo at Week 8, difference in LS means (MMRM) (men and women with OAB; vibegron 50 mg): −0.8; Urgency episodes: difference from placebo at Week 8, difference in LS means (cLDA) (men and women with OAB; vibegron 50 mg): −0.76; Total incontinence episodes: adjusted difference from placebo at Week 8, difference in LS means (MMRM) (men and women with OAB; [7]): −0.5; Total incontinence episodes: difference from placebo at Week 8, difference in LS means (cLDA) (men and women with OAB; [7]): −0.60; Urgency incontinence episodes: adjusted difference from placebo at Week 8, difference in LS means (MMRM) (men and women with OAB; [7]): −0.7; Urgency incontinence episodes: change from baseline at Week 8, mean (men and women with OAB; [7]): −1.90; Urgency incontinence episodes: daily number of events, Week 8 mean (men and women with OAB; [7]): 0.86; Urgency incontinence episodes: difference from placebo at Week 8, difference in LS means (cLDA) (men and women with OAB; [7]): −0.72; Micturitions: adjusted difference from placebo at Week 8, difference in LS means (MMRM) (men and women with OAB; vibegron 100 mg): −0.9; Micturitions: difference from placebo at Week 8, difference in LS means (cLDA) (men and women with OAB; vibegron 100 mg): −0.91; Urgency episodes: adjusted difference from placebo at Week 8, difference in LS means (MMRM) (men and women with OAB; vibegron 100 mg): −1.3; Micturitions, change from baseline at week 8, difference in LS means 100 mg − 50 mg (men and women with OAB; vibegron 100 mg vs 50 mg): −0.27; Total incontinence episodes, change from baseline at week 8, difference in LS means 100 mg − 50 mg (men and women with OAB; vibegron 100 mg vs 50 mg): 0.02; Urgency episodes, change from baseline at week 8, difference in LS means 100 mg − 50 mg (men and women with OAB; vibegron 100 mg vs 50 mg): −0.48; Urgency incontinence episodes, change from baseline at week 8, difference in LS means 100 mg − 50 mg (men and women with OAB; vibegron 100 mg vs 50 mg): 0.01; Total incontinence episodes: adjusted difference from placebo at Week 8, difference in LS means (MMRM) (men and women with OAB; [8]): −0.6; Total incontinence episodes: difference from placebo at Week 8, difference in LS means (cLDA) (men and women with OAB; [8]): −0.58; Urgency incontinence episodes: adjusted difference from placebo at Week 8, difference in LS means (MMRM) (men and women with OAB; [8]): −0.7; Urgency incontinence episodes: daily number of events, Week 8 mean (men and women with OAB; [8]): 0.84; Urgency incontinence episodes: difference from placebo at Week 8, difference in LS means (cLDA) (men and women with OAB; [8]): −0.71
